# Laboratory results: article PMC11352945, “Anticancer Activity of Benzo[a]phenoxazine Compounds Promoting Lysosomal Dysfunction” (Cells, 2024)
# What was measured:
# RKO cells [1] = experiment: Sulforhodamine B (SRB) cell viability assay, RKO; assay type: cell-based; conditions: Homo sapiens, CRC cell line, 48 h, read-out: IC50 (μM) ± SD, RKO
# Protocol: (§1) The cells were allowed to adhere overnight, from 12 h to 18 h, and then treated with increasing concentrations of each compound, C9, A36, and A42 (0.125 μM, 0.25 μM, 0.5 μM, 1 μM, 2.5 μM, and 5 μM), in their respective culture mediums for 48 h. In addition to a negative control that consisted only of cells and growth medium, a negative control containing the highest concentration of the solvent in which the compound was dissolved (DMSO 0.1%) was also used. The SRB assay was performed according to Marques et al.. The IC50 values were obtained using GraphPad Prism version 8.2.1 through the application of a sigmoidal dose–response nonlinear regression, after logarithmic transformation. The selectivity index was determined by dividing the IC50 value of the non-neoplastic BJ-5ta cell line by the IC50 value of the cancer cell lines (IC50 BJ-5ta/IC50 cancer cell line); furthermore, for the CRC model, a second selectivity index was also determined using the non-neoplastic NCM460 cell line (IC50 NCM460/IC50 CRC cell line). According to the results of the selectivity index, the cell line with the highest selectivity value for each of the models, CRC and breast, was selected for subsequent characterization.
# (§2) Three CRC-derived cell lines, SW480 (KRAS^G12V), HCT116 (KRAS^G13D), and RKO (BRAF^V600E), harboring somatic mutations on KRAS or BRAF, and two breast-cancer-derived cell lines, MDA-MB-231 (basal like) and MCF7 (luminal A subtype), together with two non-neoplastic cell lines, NCM460 (normal colon mucosal epithelial cell line) and BJ-5ta (normal foreskin fibroblast cell line), were used to study the activity and selectivity of the three new benzo[a]phenoxazine compounds, C9, A36, and A42. All cell lines were treated with a range of drug concentrations (0.125 μM, 0.25 μM, 0.5 μM, 1 μM, 2.5 μM, and 5 μM) for 48 h, and the effect on cell viability was assessed using a sulforhodamine B assay (SRB) (Figure 2). […] In addition, the selectivity index was determined using the BJ-5ta cell line as a reference, as well as the NCM460 cell line for the CRC model (Table 1).
# RKO cells [2] = experiment: Annexin V/PI assay (flow cytometry), RKO; assay type: cell-based, human; conditions: 2 × IC50 and 4 × IC50, 48 h
# Protocol: RKO and MCF7 cells were seeded in 12-well plates at a density of 1 × 10^5 cells/mL. After 24 h, the cells were treated with C9, A36, and A42 at 2 × IC50 and 4 × IC50 concentrations or 0.1% DMSO (vehicle). Untreated cells were used as controls. After 48 h, floating and adherent cells were collected. The cells were resuspended in […] of binding buffer and treated for 15 min in the dark with 5 μL of Annexin V-FITC (Detection Kit-ab14085) and 5 μL of Propidium Iodide (50 μg/mL). The samples were subjected to flow cytometry analysis, PI fluorescence was detected using the ECD-A channel, and Annexin V fluorescence was detected using the FITC-A channel.
# One of the main goals of clinical oncology is the development of compounds and treatments capable of selectively eliminating cancer cells. In this sense, we next evaluated the capability of the compounds to induce cell death in both cell lines. For this, we performed a flow cytometry analysis using annexin V-FITC and propidium iodide PI double staining. The conjugation of these two probes allowed for the discrimination of viable (negative for both), early apoptotic (annexin + and PI−), late apoptotic (annexin+ and PI+), and necrotic (annexin− and PI+) cells. […] Both flouting and attached cells were harvested and double stained.
# BJ-5ta cells = experiment: Sulforhodamine B (SRB) cell viability assay, BJ-5ta; assay type: cell-based; conditions: Homo sapiens, non-neoplastic cell line, 48 h, read-out: IC50 (μM) ± SD, BJ-5ta
# Protocol: as §1, §2
# HCT116 cells = experiment: Sulforhodamine B (SRB) cell viability assay, HCT116; assay type: cell-based; conditions: Homo sapiens, HCT-116, CRC cell line, 48 h, read-out: IC50 (μM) ± SD, HCT116
# Protocol: as §1, §2
# MDA-MB-231 cells = experiment: Sulforhodamine B (SRB) cell viability assay, MDA-MB-231; assay type: cell-based, human
# Protocol: as §1
# Three CRC-derived cell lines, SW480 (KRAS^G12V), HCT116 (KRAS^G13D), and RKO (BRAF^V600E), harboring somatic mutations on KRAS or BRAF, and two breast-cancer-derived cell lines, MDA-MB-231 (basal like) and MCF7 (luminal A subtype), together with two non-neoplastic cell lines, NCM460 (normal colon mucosal epithelial cell line) and BJ-5ta (normal foreskin fibroblast cell line), were used to study the activity and selectivity of the three new benzo[a]phenoxazine compounds, C9, A36, and A42. All cell lines were treated with a range of drug concentrations (0.125 μM, 0.25 μM, 0.5 μM, 1 μM, 2.5 μM, and 5 μM) for 48 h, and the effect on cell viability was assessed using a sulforhodamine B assay (SRB) (Figure 2). The results were used to determine the IC50 value of each compound for all the cell lines (Table 1). In addition, the selectivity index was determined using the BJ-5ta cell line as a reference, as well as the NCM460 cell line for the CRC model (Table 1).
# RKO cells [3] = experiment: Intracellular pH evaluation (BCECF-AM, flow cytometry), RKO; assay type: cell-based, human; conditions: 2 × IC50 and 4 × IC50, 48 h
# Protocol: Evaluations of the intracellular pHs (pHi) of the RKO and MCF7 cells were performed through a flow cytometry optimized protocol using the pH-sensitive probe BCECF-AM. RKO and MCF7 cells were seeded in 12-well plates at a density of 1 × 10^5 cells/mL. After 24 h, the cells were treated with the compounds C9, A36, and A42 at 2 × IC50 and 4 × IC50 concentrations or 0.1% DMSO (vehicle). As a control, untreated cells were used. Attached and floating cells were collected, washed, and then resuspended in Hank’s balanced salt solution (HBSS) after a 48 h treatment period. After that, the cells were stained with 1 μM of BCECF-AM for 30 min at 37 °C. The samples were analyzed by flow cytometry. The FITC-A and PE-A channels were used to detect the fluorescence mean of BCECF-AM.
# To further support LMP’s role in cell death induction, we investigated the effects of the compounds on intracellular pH (pHi), as LMP induction is associated with an increase in cytosolic proton levels and, as a result, a reduction in intracellular pH [67, 68, 69]. We used the dual-emission ratiometric pH-sensitive probe BCECF-AM, which emits fluorescence based on pHi. The result of acidification was shown by a decrease in the fluorescence ratio between BCECF-AM green (FITC-FL1) and red fluorescence (PE-FL2) (FL1/FL2). […]
smiles,measurement,setting,value
CCCNc1cc2oc3cc(=NCC)c(C)cc-3nc2c2ccccc12 [C9],IC50,RKO cells [1],0.17 ± 0.01 µM
same,Cell death induction (Annexin V/PI),RKO cells [2],most powerful compounds
same,IC50,BJ-5ta cells,2.55 ± 0.15 µM
same,IC50,HCT116 cells,1.64 ± 0.09 µM
same,IC50,"MDA-MB-231 cells; Homo sapiens, MDA-MB-231, breast cancer cell line, 48 h, SRB, read-out: IC50 (μM) ± SD, MDA-MB-231",1.19 ± 0.05 µM
same,Selectivity Index Cell Line IC50/BJ-5ta IC50,MDA-MB-231 cells; MDA-MB-231 versus BJ-5ta,2.14
same,Intracellular acidification (BCECF-AM FL1/FL2 ratio),RKO cells [3],most pronounced effect
